How the values were obtained:
[1] = tested on: HO-1; test: HO-1 mRNA expression; type: cell-based; details: 1 μM, 18S RNA normalization
[2] = tested on: HIV-1 gag and env mRNAs; test: HIV-1 gag and env mRNA expression in infected CEM-T cells; type: cell-based; details: CEM-T cells infected with HIV-1 Luc, 1 μM, 48 hours
[3] = tested on: HIV-1 LTR; test: Tat-induced HIV-1 LTR and proviral pNL4-3 luciferase transcription in 293T cells; type: cell-based; details: 2 μM (legend: 1 μM)
[4] = tested on: HIV-1 reverse transcription; test: Quantitative PCR for viral DNA; type: cell-based
[5] = tested on: VSVG-pseudotyped HIV-1 pNL4-3 virus expressing luciferase (HIV-1 Luc); test: microbe, parasite or virus in culture; type: cell-based; details: Human immunodeficiency virus 1, read-out: IC50, one round HIV-1 infection
[6] = Stability in serum-free RPMI 1640 media; type: in vitro ADME; details: serum-free RPMI 1640 medium
[7] = in vitro; details: human
[8] = Stability in PBS supplemented with 10% BSA; type: physicochemical; details: 37°C
[9] = Stability in mouse serum at 37°C; type: in vitro ADME
[10] = tested on: CEM-T cells; test: Cell cycle analysis of CEM-T cells; type: cell-based; details: 1 μM, 24 hours
[11] = tested on: HIV-1 LTR / NF-κB; test: Basal HIV-1 LTR and NF-κB driven luciferase transcription in 293T cells; type: cell-based; details: 2 μM (legend: 1 μM)
[12] = in vitro; details: IC50, viability of PBMCs, trypan blue, activated PBMCs
[13] = CEM-T cells infected with HIV-1 Luc, compared with AZT

## COc1cc(/C=C/C(=O)CC(=O)/C=C/c2ccc(O)c(OC)c2)ccc1O [curcumin]
[1]
  HO-1 expression in PBMCs: induced HO-1
[1]; 24 hours
  HO-1 expression in CEM-T cells: induced HO-1
[2]
  expression of HIV-1 gag and env mRNAs: significantly reduced
[3]
  effect on transcription from proviral pNL4-3 plasmid: Neither curcumin nor curcumin A at 2 μM concentrations had an effect
[3]; HIV-1 LTR luciferase + Tat vector
  effect on Tat-induced HIV-1 transcription: Neither curcumin nor curcumin A at 2 μM concentrations had an effect
[4]; 2 μM
  effect on HIV-1 reverse transcription (overall): inhibited HIV-1 RT
[4]; [13]
  effect on early LTR (early reverse transcription): inhibited early LTR similarly or better than the established HIV-1 inhibitor, AZT
  effect on late LTR formation (late reverse transcription): no significant effect
[5]
  IC50: 0.7 µM
[6]
  half-life: ~1 h
[7]
  IC50: 1.26 µM
[8]
  stabilizing effect of BSA (stability in PBS with 10% BSA): No stabilization and even a slight increase in degradation
[9]
  half-life at 50 μM: 10 h
[10]
  effect on cell cycle progression: no effect
[11]
  effect on NF-kB driven transcription: no effect
[11]; HIV-1 LTR luciferase vector
  effect on basal HIV-1 transcription: no effect
[12]
  IC50: 35 µM

Source: publication PMC4562762 (Drug Design, Development and Therapy, 2015)
